Measurements reported in US9303033B2, “Pyrazolopyrimidines and related heterocycles as CK2 inhibitors” (SENHWA BIOSCIENCES, INC., priority 2009, dated 2016).
Like-named read-outs stand apart in the source and are kept apart here.

Tests used:
CK2 ααββ = CK2 ααββ (Homo sapiens (Human), UniProt P68400); assay: CK2 assay (cell-free, 33P-ATP, phosphocellulose filter plate); assay type: biochemical
recombinant human PIM2 = recombinant human PIM2 (Homo sapiens (Human), UniProt Q9P1W9); assay: PIM-2 assay (33P-ATP filter binding); assay type: biochemical; conditions: for PIM2: % inh […]: at […] compound
recombinant human PIM2, sequence (Q9P1W9 whole entry): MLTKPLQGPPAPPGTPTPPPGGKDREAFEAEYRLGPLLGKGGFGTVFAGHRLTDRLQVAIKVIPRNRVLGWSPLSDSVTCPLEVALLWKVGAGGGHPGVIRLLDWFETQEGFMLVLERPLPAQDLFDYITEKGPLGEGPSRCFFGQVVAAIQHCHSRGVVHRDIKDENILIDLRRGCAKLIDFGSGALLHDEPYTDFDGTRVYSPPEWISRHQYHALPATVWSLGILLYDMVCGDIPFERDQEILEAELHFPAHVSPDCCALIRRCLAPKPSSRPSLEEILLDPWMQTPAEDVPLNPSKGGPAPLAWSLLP
Method: Test compounds dissolved and diluted in DMSO (2 μl) were added to a reaction mixture comprising 10 μl of 5× Reaction Buffer (40 mM MOPS pH 7.0, 5 mM EDTA), 10 μl of recombinant human PIM2 solution (4 ng PIM-2 dissolved in dilution buffer (20 mM MOPS pH 7.0; EDTA 1 mM; 5% Glycerol; 0.01% Brij 35; 0.1%; 0.1% 2-mercaptoethanol; 1 mg/ml BSA)) and 8 ul of water.

[1] = PIM2: IC50 (5 μM ATP), 5 μM ATP

CK2 ααββ, sequence (P68400 whole entry): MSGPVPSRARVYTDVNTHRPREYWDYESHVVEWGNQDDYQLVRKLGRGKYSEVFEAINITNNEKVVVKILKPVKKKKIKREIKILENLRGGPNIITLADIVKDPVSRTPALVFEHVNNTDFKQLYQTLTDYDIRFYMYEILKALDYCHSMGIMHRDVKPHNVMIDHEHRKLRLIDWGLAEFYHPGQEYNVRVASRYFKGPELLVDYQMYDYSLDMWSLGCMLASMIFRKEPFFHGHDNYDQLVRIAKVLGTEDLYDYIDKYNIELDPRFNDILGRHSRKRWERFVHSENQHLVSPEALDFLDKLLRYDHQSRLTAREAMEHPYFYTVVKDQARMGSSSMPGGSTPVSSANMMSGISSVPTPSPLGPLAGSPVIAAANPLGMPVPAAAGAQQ
CK2 ααββ, sequence (P67870 whole entry partner): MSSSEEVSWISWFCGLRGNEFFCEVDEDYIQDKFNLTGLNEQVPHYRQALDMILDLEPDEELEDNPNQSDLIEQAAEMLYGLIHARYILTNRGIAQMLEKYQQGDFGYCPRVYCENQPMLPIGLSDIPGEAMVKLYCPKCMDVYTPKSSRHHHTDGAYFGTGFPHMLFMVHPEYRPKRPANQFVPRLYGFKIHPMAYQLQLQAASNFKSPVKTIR

| SMILES | IC50 (CK2 ααββ) | IC50 (recombinant human PIM2; [1]) | further results |
| --- | --- | --- | --- |
| O=C1NC(=O)/C(=C/c2cnn3c(NC4CC4)cc(Nc4cc(Cl)ccc4F)nc23)N1 [Example Q1] | < 10 nM | > 2500 nM |  |
| CC(C)(C)OC(=O)N1CCCC1CNc1cc(Nc2cccc(Cl)c2)nc2c(/C=C3\NC(=O)NC3=O)cnn12 (centres unmarked) [Example N6] | < 100 nM | > 2500 nM |  |
| O=C1NC(=O)/C(=C/c2cnn3c(NC4CCN(Cc5ccccn5)CC4)cc(Nc4cccc(Cl)c4)nc23)N1 [Example V5] | < 1000 nM | > 2500 nM |  |
| N[C@H]1CC[C@H](Nc2cc(NC3CC3)n3ncc(/C=C4\NC(=O)NC4=O)c3n2)CC1 [Example R2] | < 100 nM | 878 nM |  |
| Cc1c(N2CCN(c3ncccc3C#N)CC2)nc2c(C=C3NC(=O)NC3=O)cnn2c1NC1CC1 [Example R46] | < 1000 nM |  | PIM2: % inh […] (recombinant human PIM2): 68.545% |
| CCOCC1(CNc2cc(Nc3cccc(Cl)c3)nc3c(/C=C4\NC(=O)NC4=O)cnn23)CC1 [Example X6] | < 1000 nM |  |  |
| O=C1NC(=O)/C(=C/c2cnn3c(NC4CC4)cc(Nc4cc(F)cc(F)c4)nc23)N1 [Example N1] | < 10 nM | 1970 nM |  |
| CCN(CC)CCNc1cc(NC2CC2)n2ncc(/C=C3\SC(=O)NC3=O)c2n1 [Example O3] | < 100 nM | > 2500 nM |  |
| O=C1NC(=O)/C(=C/c2cnn3c(SCc4ccccc4)cc(-c4cccc(Cl)c4)nc23)N1 [Example Y5] | < 1000 nM | 291 nM |  |
| O=C1NC(=O)/C(=C/c2cnn3c(NC4CC4)cc(-c4ccc(F)c(C(=O)NCCN5CCCC5)c4)nc23)N1 [Example E5] | < 100 nM | > 2500 nM |  |
| O=C1NC(=O)/C(=C/c2cnn3c(NCC4(CO)CCCC4)cc(Nc4cccc(Cl)c4)nc23)N1 [Example R6] | < 1000 nM | 1120 nM |  |
| O=C1NC(=O)/C(=C/c2cnn3c(SCc4ccccc4)cc(Nc4cccc(Cl)c4)nc23)N1 [Example X5] | < 1000 nM | 2240 nM |  |
| Cc1c(N2CCN(c3ncccc3C#N)CC2)nc2c(C=C3SC(=O)NC3=O)cnn2c1NC1CC1 [Example T46] | < 1000 nM |  | PIM2: % inh […] (recombinant human PIM2): 50.998% |
| CS(=O)(=O)N[C@H]1CC[C@H](Nc2cc(NC3CC3)n3ncc(/C=C4\NC(=O)NC4=O)c3n2)CC1 [Example E3] | < 10 nM | > 2500 nM |  |
| O=C1NC(=O)/C(=C/c2cnn3c(NCc4ccccn4)cc(Nc4cccc(Cl)c4)nc23)N1 [Example H6] | < 1000 nM | 421 nM |  |
| O=C1NC(=O)/C(=C/c2cnn3c(NCC4(CN5CCOCC5)CC4)cc(Nc4cccc(Cl)c4)nc23)N1 [Example Z6] | < 100 nM |  |  |
| O=C1NC(=O)/C(=C/c2cnn3c(NC4CC4)cc(N4CCN(c5ccccn5)CC4)nc23)S1 [Example R3] | < 1000 nM | 1820 nM |  |
| O=C1NC(=O)/C(=C/c2cnn3c(NCC4CC4)cc(Nc4cccc(S(=O)(=O)N5CCCC5)c4)nc23)N1 [Example F2] | < 100 nM |  |  |
| CC(C)Nc1cc(Nc2cccc(Cl)c2)nc2c(/C=C3\NC(=O)NC3=O)cnn12 [Example F6] | < 100 nM | > 2500 nM |  |
| Cc1nn2c(NC3CC3)cc(Nc3ccc(-n4cccn4)cc3)nc2c1C=C1NC(=O)NC1=O [Example 275, 5-((5-(4-(1H-pyrazol-1-yl)phenylamino)-7-(cyclopropylamino)-2-methylpyrazolo[1,5-a]pyrimidin-3-yl)methylene)imidazolidine-2,4-dione] | > 1000 nM |  | inhibition at […] (recombinant human PIM2; read-out: PIM2: % inh […], at 2.5 μM compound): 43.4% |
| COc1cccc(Nc2cc(NC3CC3)n3ncc(/C=C4\NC(=O)NC4=O)c3n2)c1Cl [Example P1] | < 10 nM | > 2500 nM |  |

| SMILES | IC50 (CK2 ααββ) | IC50 (recombinant human PIM2; [1]) | further results |
| --- | --- | --- | --- |
| O=C1NC(=O)/C(=C/c2cnn3c(NC4CC4)cc(Nc4ccc(-n5cccn5)cc4)nc23)N1 [Example R1] | < 10 nM | > 2500 nM |  |
| CNC(=O)c1cccc(Nc2cc(NCC3CC3)n3ncc(/C=C4\NC(=O)NC4=O)c3n2)c1 [Example G2] | < 10 nM |  |  |
| O=C1NC(=O)/C(=C/c2cnn3c([S+]([O-])Cc4ccccc4)cc(Nc4cccc(Cl)c4)nc23)N1 (centres unmarked) [Example Z5] | < 1000 nM | 297 nM |  |
| CN1CCN(CC2(CNc3cc(Nc4cccc(Cl)c4)nc4c(/C=C5\NC(=O)NC5=O)cnn34)CC2)CC1 [Example Y6] | < 100 nM |  |  |
| O=C1NC(=O)/C(=C/c2cnn3c(NCC4CC4)cc(Nc4ccc(Cl)cn4)nc23)N1 [Example H2] | < 10 nM |  |  |
| O=C1NC(=O)/C(=C/c2cnn3c(NCc4ccncc4)cc(Nc4cccc(Cl)c4)nc23)N1 [Example E6] | < 1000 nM | 1330 nM |  |
| CC(O)CN1CCC(Nc2cc(Nc3cccc(Cl)c3)nc3c(/C=C4\NC(=O)NC4=O)cnn23)CC1 (centres unmarked) [Example U5] | < 1000 nM | > 2500 nM |  |
| O=C1NC(=O)/C(=C/c2cnn3c(NCC4CC4)cc(Nc4ccncc4)nc23)N1 [Example E2] | < 10 nM |  |  |
| O=C1NC(=O)C(=Cc2cnn3c(NC4CC4)nc(OCc4ccccn4)nc23)N1 [Compound M36] | < 10 nM |  | IC50 (recombinant human PIM2; read-out: PIM2: IC50): > 1000 nM |
| O=C1NC(=O)/C(=C/c2cnn3c(NC4CC4)cc(Nc4ccc(F)c(Cl)c4)nc23)N1 [Example S1] | < 10 nM | 2040 nM |  |
| O=C1NC(=O)/C(=C/c2cnn3c(NCC4CC4)cc(Nc4cccc(O)c4)nc23)N1 [Example B2] | < 100 nM |  |  |
| COc1cccc(-c2cc(NC3CC3)n3ncc(/C=C4\SC(=O)NC4=O)c3n2)c1 [Example H5] | < 100 nM | 815 nM |  |
| CC(CNc1cc(Nc2cc(Cl)ccc2F)nc2c(C=C3NC(=O)NC3=O)cnn12)N1CCOCC1 (racemic) [Example 515] | < 10 nM |  |  |
| CC(C)(CO)CNc1cc(Nc2cccc(Cl)c2)nc2c(/C=C3\NC(=O)NC3=O)cnn12 [Example V6] | < 100 nM |  |  |
| CN(C)C(=O)N[C@H]1CC[C@H](Nc2cc(NC3CC3)n3ncc(/C=C4\NC(=O)NC4=O)c3n2)CC1 [Example B3] | < 100 nM | 538 nM |  |
| CCN1CCC(Nc2cc(Nc3cccc(Cl)c3)nc3c(/C=C4\NC(=O)NC4=O)cnn23)CC1 [Example W5] | < 1000 nM | > 2500 nM |  |
| CC(C)CN1CCC(Nc2cc(Nc3cccc(Cl)c3)nc3c(/C=C4\NC(=O)NC4=O)cnn23)CC1 [Example R5] | < 100 nM | 2200 nM |  |
| Cc1c(N2CCN(c3ccccn3)CC2)nc2c(C=C3SC(=O)NC3=O)cnn2c1NC1CC1 [Example S46] | < 1000 nM |  | PIM2: % inh […] (recombinant human PIM2): −19.761% |
| CNS(=O)(=O)c1cccc(-c2cc(NC3CC3)n3ncc(/C=C4\NC(=O)NC4=O)c3n2)c1 [Example Y3] | < 10 nM | > 2500 nM |  |
| O=C1NC(=O)/C(=C/c2cnn3c(NC4CC4)cc(NC4CCNCC4)nc23)N1 [Example W2] | < 10 nM | 877 nM |  |
| CC(=O)Nc1cccc(Nc2cc(NCC3CC3)n3ncc(/C=C4\NC(=O)NC4=O)c3n2)c1 [Example Y1] | < 100 nM | > 2500 nM |  |

| SMILES | IC50 (CK2 ααββ) | IC50 (recombinant human PIM2; [1]) | further results |
| --- | --- | --- | --- |
| O=C1NC(=O)/C(=C/c2cnn3c([S+]([O-])Cc4ccccc4)cc(-c4cccc(Cl)c4)nc23)N1 (centres unmarked) [Example A6] | < 100 nM | 209 nM |  |
| NCc1cccc(Nc2cc(NCC3CC3)n3ncc(/C=C4\NC(=O)NC4=O)c3n2)c1 [Example Z1] | < 100 nM |  |  |
| CC(Oc1nc(NC2CC2)n2ncc(C=C3NC(=O)NC3=O)c2n1)c1c(Cl)ccc(F)c1Cl (centres unmarked) [Compound L36] | < 10 nM |  | IC50 (recombinant human PIM2; read-out: PIM2: IC50): > 1000 nM |
| CC(C)C(CNc1cc(Nc2cccc(Cl)c2)nc2c(/C=C3\NC(=O)NC3=O)cnn12)N(C)C (centres unmarked) [Example W6] | < 1000 nM |  |  |
| O=C1NC(=O)/C(=C/c2cnn3c(NCC4CC4)cc(Nc4ccc(Cl)cc4)nc23)N1 [Example I2] | < 100 nM |  |  |
| O=C1NC(=O)/C(=C/c2cnn3c(Nc4cc[nH]n4)cc(Nc4cccc(Cl)c4)nc23)N1 [Example S6] | < 100 nM |  |  |
| CN(C)CC(C)(C)CNc1cc(Nc2cccc(Cl)c2)nc2c(/C=C3\NC(=O)NC3=O)cnn12 [Example M6] | < 1000 nM | > 2500 nM |  |
| O=C1NC(=O)/C(=C/c2cnn3c(NC4CCC4)cc(Nc4cccc(Cl)c4)nc23)N1 [Example G6] | < 1000 nM | > 2500 nM |  |
| CC(C)(C)OC(=O)N1CCC(CNc2cc(Nc3cccc(Cl)c3)nc3c(/C=C4\NC(=O)NC4=O)cnn23)CC1 [Example T6] | < 100 nM |  |  |
| CN1CCCN(c2cc(NC3CC3)n3ncc(/C=C4\SC(=O)NC4=O)c3n2)CC1 [Example Q3] | < 100 nM | 2050 nM |  |
| COC(=O)N1CCC(Nc2cc(Nc3cccc(Cl)c3)nc3c(/C=C4\NC(=O)NC4=O)cnn23)CC1 [Example T5] | < 100 nM | > 2500 nM |  |
| O=C1NC(=O)/C(=C/c2cnn3c(NC(=O)C4CCNCC4)cc(Nc4cccc(Cl)c4)nc23)N1 [Example B1, N-(5-(3-chlorophenylamino)-3-((2,5-dioxoimidazolidin-4-ylidene)methyl)pyrazolo[1,5-a]pyrimidin-7-yl)piperidine-4-carboxamide] | < 1000 nM | 2500 nM |  |
| O=C1NC(=O)/C(=C/c2cnn3c(NCC4(CN5CCCC5)CC4)cc(Nc4cccc(Cl)c4)nc23)N1 [Example A7] | < 100 nM |  |  |
| O=C1NC(=O)/C(=C/c2cnn3c(NCC4CC4)cc(Nc4cccc(CN5CCOCC5)c4)nc23)N1 [Example C2] | < 100 nM |  |  |
| O=C1NC(=O)/C(=C/c2cnn3c(NC4CC4)cc(-c4ccnc(F)c4)nc23)S1 [Example I5] | < 1000 nM | 218 nM |  |
| COC(=O)N[C@H]1CC[C@H](Nc2cc(NC3CC3)n3ncc(/C=C4\NC(=O)NC4=O)c3n2)CC1 [Example C3] | < 10 nM | 679 nM |  |
| Cc1cccc(Nc2cc(NCC3CC3)n3ncc(/C=C4\NC(=O)NC4=O)c3n2)c1 [Example A2] | < 100 nM |  |  |
| CC(C)N1CCC(Nc2cc(Nc3cccc(Cl)c3)nc3c(/C=C4\NC(=O)NC4=O)cnn23)CC1 [Example Q5] | < 100 nM | > 2500 nM |  |
| CC(C)(C)CC(=O)N1CCC(Nc2cc(Nc3cccc(Cl)c3)nc3c(/C=C4\NC(=O)NC4=O)cnn23)CC1 [Example S5] | < 100 nM | > 2500 nM |  |
| CC(C)Oc1cccc(Nc2cc(NC3CC3)n3ncc(/C=C4\NC(=O)NC4=O)c3n2)c1 [Example M1] | < 10 nM | > 2500 nM |  |
| O=C1NC(=O)/C(=C/c2cnn3c(NCC4CC4)cc(Nc4ccc(F)c(Cl)c4)nc23)N1 [Example D2] | < 100 nM |  |  |
